Results as given in BindingDB's records for doi:10.1002/bip.20588 (University of California Davis, 2006).
*1 amine or outer side, *2 acyl side, *3 side chain or, on linkers, in order; H or OH if unused. Where a SMILES comes first, the peptide text is derived from it. [ ]: non-standard residue; d: D form. The star is where a group is joined. ξ: configuration not given here. Phac(3-amino) = O=C(Cc1cccc(N[*:1])c1)[*:2]; X13 = CC(C(=O)[*:2])c1ccc(N[*:1])cc1; X2 = O=C(/C=C/c1ccc(N[*:1])cc1)[*:2]; NH(2,6-Me2-phenyl) = Cc1cccc(C)c1N*; X3 = O=C(CCCc1ccc(N[*:1])cc1)[*:2]; X1 = O=C(Cc1ccc(N[*:1])cc1)[*:2]; X8 = O=C(COc1ccccc1N[*:1])[*:2]; Ile(3ξ) = CCC(C)[C@H](N)C(=O)O; X4 = O=C(Cc1ccccc1N[*:1])[*:2]; NH(2-Me-phenyl) = Cc1ccccc1N*; X12 = c1ccc(Oc2ccccc2N*)cc1; β3hP = O=C(O)C[C@@H]1CCCN1; Nle = CCCC[C@H](N)C(=O)O; Abu = CC[C@H](N)C(=O)O; CO = O=C([*:1])[*:2]

What follows are compounds tested against Integrin alpha-4/beta-1 (Homo sapiens, UniProt P05556+P13612, T112H) (assay: Jurkat Cell Adhesion Inhibition Assay). Details: not given.
Description: Binding affinities (IC50) of the ligands were studied in a Jurkat cell adhesion assay by inhibiting the alpha-4/beta-1 mediated cell adhesion to CS-1 peptides. The 96-well plates were coated with neutravidin, followed by biotinconjugated CS-1 peptides. Jurkat cells with series dilutions of tested ligands in binding buffer were added and allowed to bind for 30 min. Bound cells were recorded using a 96-well plate reader at 570 nm. IC50 values were calculated from inhibition curves resulting from the concentration-dependent inhibition
Work on `CCCC[C@H](NC(=O)Cc1ccc(NC(=O)Nc2ccccc2C)cc1)C(=O)N[C@@H](CC(=O)O)C(=O)N[C@@H](CC)C(=O)N1CCC[C@H]1C(N)=O` [(3S)-3-{[(2S)-1-[(2S)-2-carbamoylpyrrolidin-1-yl]-1-oxobutan-2-yl]carbamoyl}-3-[(2S)-2-[1-(4-{[(2-methylphenyl)carbamoyl]amino}phenyl)acetamido]hexanamido]propanoic acid] ({NH(2-Me-phenyl)-CO}-[X1][Nle]D[Abu]P-NH2) yielded an IC50 of 2.9 nM. `CCCC[C@H](NC(=O)Cc1ccc(NC(=O)Nc2ccccc2C)cc1)C(=O)N[C@@H](CC(=O)O)C(=O)N[C@H](C(=O)N1CCC[C@H]1C(N)=O)C(C)C` [(3S)-3-{[(2S)-1-[(2S)-2-carbamoylpyrrolidin-1-yl]-3-methyl-1-oxobutan-2-yl]carbamoyl}-3-[(2S)-2-[1-(4-{[(2-methylphenyl)carbamoyl]amino}phenyl)acetamido]hexanamido]propanoic acid] ({NH(2-Me-phenyl)-CO}-[X1][Nle]DVP-NH2) showed an IC50 of 0.6 nM. In the case of `CCCC[C@H](NC(=O)Cc1ccccc1NC(=O)Nc1ccccc1C)C(=O)N[C@@H](CC(=O)O)C(=O)N[C@H](C(=O)N1CCC[C@H]1C(N)=O)C(C)CC` (stereo partly drawn) [(3S)-3-{[(2S,3S)-1-[(2S)-2-carbamoylpyrrolidin-1-yl]-3-methyl-1-oxopentan-2-yl]carbamoyl}-3-[(2S)-2-[1-(2-{[(2-methylphenyl)carbamoyl]amino}phenyl)acetamido]hexanamido]propanoic acid] ({NH(2-Me-phenyl)-CO}-[X4][Nle]D[Ile(3ξ)]P-NH2), the IC50 is reported as 3000 nM. `CCCC[C@H](NC(=O)Cc1cccc(NC(=O)Nc2ccccc2C)c1)C(=O)N[C@@H](CC(=O)O)C(=O)N[C@H](C(=O)N1CCC[C@H]1C(N)=O)C(C)CC` (stereo partly drawn) [(3S)-3-{[(2S,3S)-1-[(2S)-2-carbamoylpyrrolidin-1-yl]-3-methyl-1-oxopentan-2-yl]carbamoyl}-3-[(2S)-2-[1-(3-{[(2-methylphenyl)carbamoyl]amino}phenyl)acetamido]hexanamido]propanoic acid] ({NH(2-Me-phenyl)-CO}-[Phac(3-amino)][Nle]D[Ile(3ξ)]P-NH2) showed an IC50 of 140 nM. With `CCCC[C@H](NC(=O)Cc1ccc(NC(=O)Nc2c(C)cccc2C)cc1)C(=O)N[C@@H](CC(=O)O)C(=O)N[C@H](C(=O)N1CCC[C@H]1C(N)=O)C(C)CC` (stereo partly drawn) [(3S)-3-{[(2S,3S)-1-[(2S)-2-carbamoylpyrrolidin-1-yl]-3-methyl-1-oxopentan-2-yl]carbamoyl}-3-[(2S)-2-[1-(4-{[(2,6-dimethylphenyl)carbamoyl]amino}phenyl)acetamido]hexanamido]propanoic acid] ({NH(2,6-Me2-phenyl)-CO}-[X1][Nle]D[Ile(3ξ)]P-NH2) the IC50 was 7.2 nM. Compound `CCCC[C@H](NC(=O)Cc1ccc(NC(=O)Nc2ccccc2Oc2ccccc2)cc1)C(=O)N[C@@H](CC(=O)O)C(=O)N[C@H](C(=O)N1CCC[C@H]1C(N)=O)C(C)CC` (stereo partly drawn) [(3S)-3-{[(2S,3S)-1-[(2S)-2-carbamoylpyrrolidin-1-yl]-3-methyl-1-oxopentan-2-yl]carbamoyl}-3-[(2S)-2-[1-(4-{[(2-phenoxyphenyl)carbamoyl]amino}phenyl)acetamido]hexanamido]propanoic acid] ({X12-CO}-[X1][Nle]D[Ile(3ξ)]P-NH2) has an IC50 of 500 nM. Work on `CCCC[C@H](NC(=O)COc1ccccc1NC(=O)Nc1ccccc1C)C(=O)N[C@@H](CC(=O)O)C(=O)N[C@H](C(=O)N1CCC[C@H]1C(N)=O)C(C)CC` (stereo partly drawn) [(3S)-3-{[(2S,3S)-1-[(2S)-2-carbamoylpyrrolidin-1-yl]-3-methyl-1-oxopentan-2-yl]carbamoyl}-3-[(2S)-2-[2-(2-{[(2-methylphenyl)carbamoyl]amino}phenoxy)acetamido]hexanamido]propanoic acid] ({NH(2-Me-phenyl)-CO}-[X8][Nle]D[Ile(3ξ)]P-NH2) yielded an IC50 of 463 nM. `CCCC[C@H](NC(=O)C(C)c1ccc(NC(=O)Nc2ccccc2C)cc1)C(=O)N[C@@H](CC(=O)O)C(=O)N[C@H](C(=O)N1CCC[C@H]1C(N)=O)C(C)CC` (stereo partly drawn) [(3S)-3-{[(2S,3S)-1-[(2S)-2-carbamoylpyrrolidin-1-yl]-3-methyl-1-oxopentan-2-yl]carbamoyl}-3-[(2S)-2-[2-(4-{[(2-methylphenyl)carbamoyl]amino}phenyl)propanamido]hexanamido]propanoic acid] ({NH(2-Me-phenyl)-CO}-[X13][Nle]D[Ile(3ξ)]P-NH2) showed an IC50 of 3.1 nM. Work on `CCCC[C@H](NC(=O)CCCc1ccc(NC(=O)Nc2ccccc2C)cc1)C(=O)N[C@@H](CC(=O)O)C(=O)N[C@H](C(=O)N1CCC[C@H]1C(N)=O)C(C)CC` (stereo partly drawn) [(3S)-3-{[(2S,3S)-1-[(2S)-2-carbamoylpyrrolidin-1-yl]-3-methyl-1-oxopentan-2-yl]carbamoyl}-3-[(2S)-2-[4-(4-{[(2-methylphenyl)carbamoyl]amino}phenyl)butanamido]hexanamido]propanoic acid] ({NH(2-Me-phenyl)-CO}-[X3][Nle]D[Ile(3ξ)]P-NH2) yielded an IC50 of 100 nM. Compound `CCCC[C@H](NC(=O)/C=C/c1ccc(NC(=O)Nc2ccccc2C)cc1)C(=O)N[C@@H](CC(=O)O)C(=O)N[C@H](C(=O)N1CCC[C@H]1C(N)=O)C(C)CC` (stereo partly drawn) [(3S)-3-{[(2S,3S)-1-[(2S)-2-carbamoylpyrrolidin-1-yl]-3-methyl-1-oxopentan-2-yl]carbamoyl}-3-[(2S)-2-[(2E)-3-(4-{[(2-methylphenyl)carbamoyl]amino}phenyl)prop-2-enamido]hexanamido]propanoic acid] ({NH(2-Me-phenyl)-CO}-[X2][Nle]D[Ile(3ξ)]P-NH2) has an IC50 of 4.4 nM.

Same assay, conditions: pH 7.5; 22 °C
For `CCCC[C@H](NC(=O)Cc1ccc(NC(=O)Nc2ccccc2C)cc1)C(=O)N[C@@H](CC(=O)O)C(=O)N[C@H](C(=O)N1CCCC(C(N)=O)C1)C(C)CC` (stereo partly drawn) [(3S)-3-{[(2S,3S)-1-(3-carbamoylpiperidin-1-yl)-3-methyl-1-oxopentan-2-yl]carbamoyl}-3-[(2S)-2-[1-(4-{[(2-methylphenyl)carbamoyl]amino}phenyl)acetamido]hexanamido]propanoic acid], the IC50 was 4 nM. With `CCCC[C@H](NC(=O)Cc1ccc(NC(=O)Nc2ccccc2C)cc1)C(=O)N[C@@H](CC(=O)O)C(=O)N[C@H](C(=O)N1CCC(C(N)=O)CC1)C(C)CC` (stereo partly drawn) [(3S)-3-{[(2S,3S)-1-(4-carbamoylpiperidin-1-yl)-3-methyl-1-oxopentan-2-yl]carbamoyl}-3-[(2S)-2-[1-(4-{[(2-methylphenyl)carbamoyl]amino}phenyl)acetamido]hexanamido]propanoic acid] the IC50 was 3.3 nM. Compound `CCCC[C@H](NC(=O)Cc1ccc(NC(=O)Nc2ccccc2C)cc1)C(=O)N[C@@H](CC(=O)O)C(=O)N[C@H](C(=O)N1CCC2(CC1)C(=O)N(CC(N)=O)CN2c1ccccc1)C(C)CC` (stereo partly drawn) [(3S)-3-{[(2S,3S)-1-[3-(carbamoylmethyl)-4-oxo-1-phenyl-1,3,8-triazaspiro[4.5]decan-8-yl]-3-methyl-1-oxopentan-2-yl]carbamoyl}-3-[(2S)-2-[1-(4-{[(2-methylphenyl)carbamoyl]amino}phenyl)acetamido]hexanamido]propanoic acid] has an IC50 of 29 nM. Work on `CCCC[C@H](NC(=O)Cc1ccc(NC(=O)Nc2ccccc2C)cc1)C(=O)N[C@@H](CC(=O)O)C(=O)N[C@H](C(=O)N1CCCC[C@@H]1C(N)=O)C(C)CC` (stereo partly drawn) [(3S)-3-{[(2S,3S)-1-[(2R)-2-carbamoylpiperidin-1-yl]-3-methyl-1-oxopentan-2-yl]carbamoyl}-3-[(2S)-2-[1-(4-{[(2-methylphenyl)carbamoyl]amino}phenyl)acetamido]hexanamido]propanoic acid] yielded an IC50 of 3 nM. With `CCCC[C@H](NC(=O)Cc1ccc(NC(=O)Nc2ccccc2C)cc1)C(=O)N[C@@H](CC(=O)O)C(=O)N[C@H](C(=O)N1CCC[C@@H]1C(N)=O)C(C)CC` (stereo partly drawn) [(3S)-3-{[(2S,3S)-1-[(2R)-2-carbamoylpyrrolidin-1-yl]-3-methyl-1-oxopentan-2-yl]carbamoyl}-3-[(2S)-2-[1-(4-{[(2-methylphenyl)carbamoyl]amino}phenyl)acetamido]hexanamido]propanoic acid] the IC50 was 2.9 nM. With `CCCC[C@H](NC(=O)Cc1ccc(NC(=O)Nc2ccccc2C)cc1)C(=O)N[C@@H](CC(=O)O)C(=O)N[C@H](C(=O)N1CCC[C@H]1CC(N)=O)C(C)CC` (stereo partly drawn) [(3S)-3-{[(2S,3S)-1-[(2S)-2-(carbamoylmethyl)pyrrolidin-1-yl]-3-methyl-1-oxopentan-2-yl]carbamoyl}-3-[(2S)-2-[1-(4-{[(2-methylphenyl)carbamoyl]amino}phenyl)acetamido]hexanamido]propanoic acid] ({NH(2-Me-phenyl)-CO}-[X1][Nle]D[Ile(3ξ)][β3hP]-NH2) the IC50 was 3.1 nM. Work on `CCCC[C@H](NC(=O)Cc1ccc(NC(=O)Nc2ccccc2C)cc1)C(=O)N[C@@H](CC(=O)O)C(=O)N[C@H](C(=O)N1CC(O)C[C@H]1C(N)=O)C(C)CC` (stereo partly drawn) [(3S)-3-{[(2S,3S)-1-[(2S)-2-carbamoyl-4-hydroxypyrrolidin-1-yl]-3-methyl-1-oxopentan-2-yl]carbamoyl}-3-[(2S)-2-[1-(4-{[(2-methylphenyl)carbamoyl]amino}phenyl)acetamido]hexanamido]propanoic acid] yielded an IC50 of 3 nM. With `CCCC[C@H](NC(=O)Cc1ccc(NC(=O)Nc2ccccc2C)cc1)C(=O)N[C@@H](CC(=O)O)C(=O)N[C@H](C(=O)N1CCCC[C@H]1C(N)=O)C(C)CC` (stereo partly drawn) [(3S)-3-{[(2S,3S)-1-[(2S)-2-carbamoylpiperidin-1-yl]-3-methyl-1-oxopentan-2-yl]carbamoyl}-3-[(2S)-2-[1-(4-{[(2-methylphenyl)carbamoyl]amino}phenyl)acetamido]hexanamido]propanoic acid] the IC50 was 1.4 nM. With `CCCC[C@H](NC(=O)Cc1ccc(NC(=O)Nc2ccccc2C)cc1)C(=O)N[C@@H](CC(=O)O)C(=O)N[C@H](C(=O)N1CCC[C@H]1C(N)=O)C(C)CC` (stereo partly drawn) [(3S)-3-{[(2S,3S)-1-[(2S)-2-carbamoylpyrrolidin-1-yl]-3-methyl-1-oxopentan-2-yl]carbamoyl}-3-[(2S)-2-[1-(4-{[(2-methylphenyl)carbamoyl]amino}phenyl)acetamido]hexanamido]propanoic acid] the IC50 was 1.4 nM.
